Results taken from patent US6696487B2, “Fungicidal phenyl(thio)urea and phenyl(thio)carbamate derivatives” (Bayer Cropscience S.A., priority 2000, dated 2004).

melting point: 125 °C
Structure (SMILES): CCN(C)C(=S)Nc1cc(C)c(Oc2cccc(C(C)(C)C)c2)cc1C [Compound 27, N′-(4-{[3-(1,1-dimethylethyl)phenyl]oxy}-2,5-dimethylphenyl)-N-ethyl-N-methylthiourea]
